Laboratory results from article PMC12292835, “Amylin Receptor 1 Mutagenesis Revealed a Potential Role of Calcitonin Serine 29 in Receptor Interaction” (Biomedicines, 2025).
Where a SMILES comes first, the peptide text is derived from it. The star is where a group is joined. FITC = O=C1OC2(c3ccc(O)cc3Oc3cc(O)ccc32)c2ccc(NC(=S)*)cc21

How the values were obtained:
[1] = target: T1, amylin receptor 1 ECD with calcitonin receptor N124A mutation (Homo sapiens, UniProt O60894+P30988, N124A); assay: FP saturation binding, N124A; conditions: for Average fluorescence intensity change upon receptor ECD binding: % of a free probe intensity, Mean ± S.D., N124A, max receptor 1 μM; for decrease of binding affinity: N124A versus wild-type receptor ECD
T1 construct: pHLsec/hRAMP1.24–111-(GSA)3-hCTR.34–141.N124A-H6 (D-pJS005); H6 (hexahistidine) (C); made in house; host or cells: HEK293 (transient transfection, secreted, N-glycosylated)
T1 sequence (O60894 24-111): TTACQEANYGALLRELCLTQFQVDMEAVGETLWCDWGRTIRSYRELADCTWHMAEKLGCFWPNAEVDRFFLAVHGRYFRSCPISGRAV
T1 sequence (P30988 34-141 N124A): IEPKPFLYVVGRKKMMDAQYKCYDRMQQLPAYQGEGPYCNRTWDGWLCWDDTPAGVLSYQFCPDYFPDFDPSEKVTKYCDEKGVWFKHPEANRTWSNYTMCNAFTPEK
Description: (§1) pHLsec-based vectors were used to express wild-type and mutated amylin receptor 1 extracellular domains as secreted proteins to cell culture media. The plasmid DNA construct of the wild-type amylin receptor 1 extracellular domain, pHLsec/hRAMP1.24–111-(GSA)3-hCTR.34–141-H6 (H-pSL005) was previously described. The following DNA vector plasmids were made for this study: pHLsec/hRAMP1.24–111-(GSA)3-hCTR.34–141.D97A-H6 (D-pSL009), pHLsec/hRAMP1.24–111-(GSA)3-hCTR.34–141.D97E-H6 (D-pJS001), pHLsec/hRAMP1.24–111-(GSA)3-hCTR.34–141.D101A-H6 (D-pJJ003), pHLsec/hRAMP1.24–111-(GSA)3-hCTR.34–141.D101E-H6 (D-pJJ002), pHLsec/hRAMP1.24–111-(GSA)3-hCTR.34–141.E123A-H6 (D-pJJ004), pHLsec/hRAMP1.24–111-(GSA)3-hCTR.34–141.E123D-H6 (D-pJJ001), pHLsec/hRAMP1.24–111-(GSA)3-hCTR.34–141.N124A-H6 (D-pJS005), pHLsec/hRAMP1.24–111-(GSA)3-hCTR.34–141.N124D-H6 (D-pJS006), pHLsec/hRAMP1.24–111-(GSA)3-hCTR.34–141.N135A-H6 (D-pJW001), and pHLsec/hRAMP1.24–111-(GSA)3-hCTR.34–141.N135D-H6 (D-pJS002). The mutations were introduced to the calcitonin receptor extracellular domain by using DNA Assembly reaction. Coding sequences of the receptor expression vectors were confirmed with Sanger sequencing by Bionics (Seoul, Republic of Korea). DNA plasmid vectors were extracted and were purified from bacterial cells with NucleoBond® Extra Midi Plus kit (Macherey-Nagel, Germany). The purified DNA vectors were stored at −20 °C until their use for mammalian cell transfection.
(§2) The overall experimental procedure of reconstituting the functional amylin receptor 1 extracellular domain (ECD) as the fusion protein of RAMP1 ECD and the calcitonin receptor ECD was previously described. The wild-type and mutated amylin receptor 1 ECDs were expressed from HEK293 cells with transient transfection with polyethylenimine. The expressed receptor proteins were secreted to cell culture media for 4 days at 37 °C. The media were collected for the receptor protein purification. Initial dialysis was performed with the dialysis buffer (Tris 25 mM (pH 7.4), NaCl 150 mM, and imidazole 10 mM) overnight. […] Then, a size exclusion column chromatography (SEC) was performed with SEC column (Cytiva, HiLoad® 16/600 Superdex® 200 pg) and SEC buffer (Tris 50 mM (pH 7.4), NaCl 150 mM, and glycerol (v/v) 10%) as previously described. As the final step, the purified receptor proteins were dialyzed to storage buffer (HEPES 25 mM (pH 7.4), NaCl 150 mM, and glycerol (v/v) 50 %) and were stored at −60 °C until their use for the receptor–ligand binding assay. […]
(§3) The overall procedure of the FP binding assay with a saturation binding format was previously described. […] FITC-labeled peptide probes were incubated for 1 h at room temperature with the purified receptor protein prior to fluorescence signal measurement. […]

[2] = target: T2, amylin receptor 1 ECD wild-type (WT) (Homo sapiens, UniProt O60894+P30988); assay: FP saturation binding, FITC peptide probes, wild-type amylin receptor 1 ECD; conditions: for Average fluorescence intensity change upon receptor ECD binding: % of a free probe intensity, Mean ± S.D., WT, max receptor 3 μM (sCT), 1 μM (AC413)
T2 construct: pHLsec/hRAMP1.24–111-(GSA)3-hCTR.34–141-H6 (H-pSL005); H6 (hexahistidine) (C); made in house; host or cells: HEK293 (transient transfection, secreted, N-glycosylated)
T2 sequence (O60894 24-111): as the sequence (O60894 24-111) above
T2 sequence (P30988 34-141): as the sequence (P30988 34-141 N124A) above, with A91N counted along it
Description: as §1
The overall experimental procedure of reconstituting the functional amylin receptor 1 extracellular domain (ECD) as the fusion protein of RAMP1 ECD and the calcitonin receptor ECD was previously described. The wild-type and mutated amylin receptor 1 ECDs were expressed from HEK293 cells with transient transfection with polyethylenimine. […]
as §3

[3] = target: T3, amylin receptor 1 ECD with calcitonin receptor D101A mutation (Homo sapiens, UniProt O60894+P30988, D101A); assay: FP saturation binding, D101A; conditions: for Average fluorescence intensity change upon receptor ECD binding: % of a free probe intensity, Mean ± S.D., max receptor 1 μM; for effect of mutation on binding affinity: in words
T3 construct: pHLsec/hRAMP1.24–111-(GSA)3-hCTR.34–141.D101A-H6 (D-pJJ003); H6 (hexahistidine) (C); made in house; host or cells: HEK293 (transient transfection, secreted, N-glycosylated)
T3 sequence (O60894 24-111): as the sequence (O60894 24-111) above
T3 sequence (P30988 34-141 D101A): as the sequence (P30988 34-141 N124A) above, with D68A, A91N counted along it
Description: as §1, §2, §3

[4] = target: T4, amylin receptor 1 ECD with calcitonin receptor D97A mutation (Homo sapiens, UniProt O60894+P30988, D97A); assay: FP saturation binding, D97A; conditions: for Average fluorescence intensity change upon receptor ECD binding: % of a free probe intensity, Mean ± S.D., max receptor 3 μM (sCT), 1 μM (AC413)
T4 construct: pHLsec/hRAMP1.24–111-(GSA)3-hCTR.34–141.D97A-H6 (D-pSL009); H6 (hexahistidine) (C); made in house; host or cells: HEK293 (transient transfection, secreted, N-glycosylated)
T4 sequence (O60894 24-111): as the sequence (O60894 24-111) above
T4 sequence (P30988 34-141 D97A): as the sequence (P30988 34-141 N124A) above, with D64A, A91N counted along it
Description: as §1, §2, §3

[5] = target: T5, amylin receptor 1 ECD with calcitonin receptor D97E mutation (Homo sapiens, UniProt O60894+P30988, D97E); assay: FP saturation binding, D97E; conditions: for Average fluorescence intensity change upon receptor ECD binding: % of a free probe intensity, Mean ± S.D., max receptor 3 μM (sCT), 1 μM (AC413); for effect of mutation on binding affinity: in words
T5 construct: pHLsec/hRAMP1.24–111-(GSA)3-hCTR.34–141.D97E-H6 (D-pJS001); H6 (hexahistidine) (C); made in house; host or cells: HEK293 (transient transfection, secreted, N-glycosylated)
T5 sequence (O60894 24-111): as the sequence (O60894 24-111) above
T5 sequence (P30988 34-141 D97E): as the sequence (P30988 34-141 N124A) above, with D64E, A91N counted along it
Description: as §1, §2, §3

| Average fluorescence intensity change upon receptor ECD binding [1] | decrease of binding affinity [1] | Average fluorescence intensity change upon receptor ECD binding [2] | Average fluorescence intensity change upon receptor ECD binding [3] | effect of mutation on binding affinity [3] | Average fluorescence intensity change upon receptor ECD binding ([4]; D97A) | effect of mutation on binding affinity ([4]; D97A, in words) | Average fluorescence intensity change upon receptor ECD binding [5] | stronger affinity of FITC-labeled over non-labeled peptide ([2]; KD 81 nM versus previously reported KI 2.5 μM of non-labeled sCT(22–32)) | decrease of binding affinity ([4]; D97A versus wild-type receptor ECD) | Structure (SMILES) | effect of mutation on binding affinity [5] |
| --- | --- | --- | --- | --- | --- | --- | --- | --- | --- | --- | --- |
| 87 ± 2% | 8.2 fold | 67 ± 8% | 97 ± 3% | markedly decreased the binding affinity | 71 ± 4% | not significantly changed | 68 ± 3% | – | – | CC(C)C[C@H](NC(=O)[C@H](CCCNC(=N)N)NC(=O)[C@@H](NC(=O)[C@H](CC(C)C)NC(=O)[C@H](Cc1ccccc1)NC(=O)[C@H](CC(N)=O)NC(=O)[C@H](C)NC(=S)Nc1ccc2c(c1)C(=O)OC21c2ccc(O)cc2Oc2cc(O)ccc21)C(C)C)C(=O)N[C@@H](CCC(N)=O)C(=O)N[C@H](C(=O)N[C@@H](Cc1ccc(O)cc1)C(=O)N1CCC[C@H]1C(=O)N[C@@H](CCCNC(=N)N)C(=O)N[C@H](C(=O)N[C@@H](CC(N)=O)C(=O)N[C@H](C(=O)NCC(=O)N[C@@H](C)C(=O)N[C@@H](CC(N)=O)C(=O)N[C@H](C(=O)N1CCC[C@H]1C(N)=O)[C@@H](C)O)C(C)C)[C@@H](C)O)[C@@H](C)O [FITC-AC413(6–25) Y25P] ({FITC}-ANFLVRLQTYPRTNVGANTP-NH2; C-terminus assumed) | not significantly changed |
| 85 ± 11% | more than 10 fold | 71 ± 4% | 101 ± 4% | markedly decreased the binding affinity | 75 ± 12% | – | 78 ± 4% | more than 30 fold | 6.8 fold | C[C@@H](O)[C@H](NC(=O)[C@H](CC(N)=O)NC(=O)[C@@H](NC(=O)[C@H](CCCNC(=N)N)NC(=O)[C@@H]1CCCN1C(=O)[C@H](Cc1ccc(O)cc1)NC(=S)Nc1ccc2c(c1)C(=O)OC21c2ccc(O)cc2Oc2cc(O)ccc21)[C@@H](C)O)C(=O)NCC(=O)N[C@@H](CO)C(=O)NCC(=O)N[C@H](C(=O)N1CCC[C@H]1C(N)=O)[C@@H](C)O [FITC-sCT(22–32)] ({FITC}-YPRTNTGSGTP-NH2; C-terminus assumed) | partially restored the decreased affinity |
